In article PMC10384562, “Synthesis and Structure Determination of Substituted Thiazole Derivatives as EGFR/BRAF^V600E Dual Inhibitors Endowed with Antiproliferative Activity” (Pharmaceuticals, 2023):
Like-named read-outs stand apart in the source and are kept apart here.

Key:
[1] = tested on: lung cancer (A-549) cell line; experiment: Antiproliferative assay, A-549; format: cell-based; conditions: Homo sapiens, A549; A-549 lung cancer cells; read-out: Antiproliferative Activity IC50 ± SEM, A-549
Protocol: (§1) 4.2.1.2. Assay for antiproliferative effect
(§2) To explore the antiproliferative potential of compounds propidium iodide fluorescence assay was performed using different cell lines such as Panc-1 (pancreas cancer cell line), MCF-7 (breast cancer cell line), HT-29 (colon cancer cell line) and A-549 (epithelial cancer cell line), respectively. To calculate the total nuclear DNA, a fluorescent dye (propidium iodide, PI) is used which can attach to the DNA, thus offering a quick and precise technique. PI cannot pass through the cell membrane and its signal intensity can be considered as directly proportional to quantity of cellular
(§3) DNA. Cells whose cell membranes are damaged or have changed permeability are counted as dead ones. The assay was performed by seeding the cells of different cell lines at a density of 3000-7500 cells/well (in200μl medium) in culture plates followed by incubation for 24h at 37 °C in humidified 5%CO2/95% air atmospheric conditions.
(§4) The medium was removed; the compounds were added to the plates at 10 μM concentrations (in 0.1% DMSO) in triplicates, followed by incubation for 48h. DMSO (0.1%) was used as control. After incubation, medium was removed followed by the addition of PI (25 μl, 50μg/mL in water/medium) to each well of the plates. At -80 °C, the plates were allowed to freeze for 24 h, followed by thawing at 25 °C. A fluorometer (Polar-Star BMG Tech) was used to record the readings at excitation and emission wavelengths of 530 and 620 nm for each well. The percentage cytotoxicity of compounds was calculated using the following formula:
(§5) Where ATC= Absorbance of treated cells and AC= Absorbance of control. Erlotinib was used as positive control in the assay.
(§6) (1 picture or pasted object on this page, not shown here)

[2] = tested on: breast cancer (MCF-7) cell line; experiment: Antiproliferative assay, MCF-7; format: cell-based; conditions: Homo sapiens, MCF7; MCF-7 breast cancer cells; read-out: Antiproliferative Activity IC50 ± SEM, MCF-7
Protocol: as §1, §2, §3, §4, §5

[3] = tested on: pancreatic cancer (Panc-1) cell line; experiment: Antiproliferative assay, Panc-1; format: cell-based; conditions: Homo sapiens; Panc-1 pancreatic cancer cells; read-out: Antiproliferative Activity IC50 ± SEM, Panc-1
Protocol: as §1, §2, §3, §4, §5

[4] = tested on: colon cancer (HT-29) cell line; experiment: Antiproliferative assay, HT-29; format: cell-based; conditions: Homo sapiens; HT-29 colon cancer cells; read-out: Antiproliferative Activity IC50 ± SEM, HT-29
Protocol: as §1, §2, §3, §4, §5

[5] = tested on: four human cancer cell lines (A-549, MCF-7, Panc-1, HT-29); experiment: Antiproliferative assay, average over four cancer cell lines (GI50); format: cell-based; conditions: for IC50: average IC50 (GI50) over A-549, MCF-7, Panc-1, HT-29; for fold less potent than compound 3f (GI50): ratio of GI50 to that of 3f
Protocol: as §1
To explore the antiproliferative potential of compounds propidium iodide fluorescence assay was performed using different cell lines such as Panc-1 (pancreas cancer cell […]
(epithelial cancer cell line), respectively. To calculate the total nuclear DNA, a fluorescent dye (propidium iodide, PI) is used which can attach to the DNA, thus offering a quick and precise technique. PI cannot pass through the cell membrane and its signal intensity can be considered as directly proportional to quantity of cellular
DNA. Cells whose cell membranes are damaged or have changed permeability are counted as dead ones. The assay was performed by seeding the cells of different cell lines at a density of 3000-7500 cells/well (in200μl medium) in culture plates followed […]
as §4
Where ATC= Absorbance of treated cells and AC= Absorbance of control. […]
was used as positive control in the assay.
as §6

in vitro = conditions: human
[6] = Cell viability assay (MTT) on normal mammary epithelial cells; conditions: human, MCF-10A mammary gland epithelial cells
[7] = tested on: four evaluated cancer cell lines; design: method as in doi:10.1016/j.arabjc.2023.104612; conditions: ref [36]; read-out: GI50 against the four evaluated cancer cell lines; cited from earlier work
EGFR [8] = target: T1, EGFR (Homo sapiens, UniProt P00533); design: method as in doi:10.1016/j.arabjc.2023.104612; conditions: ref [36]; cited from earlier work
T1 construct: CD, amino acids 645–1186); His6 (N); made in house; host or cells: Sf-9 insect cells (baculovirus; pBlueBacHis2B / pFASTBacHTc
T1 sequence (P00533 669-1210): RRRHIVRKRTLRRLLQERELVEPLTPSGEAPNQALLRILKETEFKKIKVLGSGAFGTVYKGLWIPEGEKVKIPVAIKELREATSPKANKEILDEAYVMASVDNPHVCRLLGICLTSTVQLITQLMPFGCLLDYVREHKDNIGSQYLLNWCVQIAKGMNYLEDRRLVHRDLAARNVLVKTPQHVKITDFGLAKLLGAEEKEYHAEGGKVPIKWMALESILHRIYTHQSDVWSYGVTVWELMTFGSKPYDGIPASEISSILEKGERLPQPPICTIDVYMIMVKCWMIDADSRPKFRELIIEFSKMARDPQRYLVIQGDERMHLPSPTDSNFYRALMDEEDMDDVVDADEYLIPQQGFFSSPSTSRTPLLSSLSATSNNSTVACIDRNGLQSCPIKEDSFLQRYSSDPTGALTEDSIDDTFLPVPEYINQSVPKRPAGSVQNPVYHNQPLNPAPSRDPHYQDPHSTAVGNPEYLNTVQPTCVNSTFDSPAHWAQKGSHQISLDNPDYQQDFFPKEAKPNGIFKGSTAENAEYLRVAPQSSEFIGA

EGFR [9] = target: T1, EGFR; experiment: EGFR-TK inhibitory assay; format: biochemical; conditions: for IC50: read-out: EGFR Inhibition IC50 ± SEM; for fold less potent than erlotinib (EGFR IC50): ratio of EGFR IC50 to that of erlotinib
Protocol: 4.2.2. EGFR inhibitory assay
Baculoviral expression vectors including pBlueBacHis2B and pFASTBacHTc were […]
5ʹ upstream to the EGFR sequence comprised a sequence that encoded (His)6. Sf-9 cells were infected for 72h for protein expression. The pellets of Sf-9 cells were solubilized in a buffer containing sodium vanadate (100 μM), aprotinin (10 μg/mL), triton (1%), HEPES buffer(50mM), ammonium molybdate (10 μM), benzamidine HCl (16 μg/mL), NaCl (10 mM),leupeptin (10 μg/mL) and pepstatin (10 μg/mL) at 0°C for 20 min at pH 7.4, followed by centrifugation for 20 min. To eliminate the nonspecifically bound material, a Ni-NTA super flow packed column was used to pass through and wash the crude extract supernatant first with 10mM and then with 100 mM imidazole. Histidine-linked proteins were first eluted with 250 and then with 500 mM imidazole subsequent to dialysis against NaCl (50 mM), HEPES (20 mM), glycerol (10%) and 1 μg/mL each of aprotinin, leupeptin and pepstatin for 120 min. The purification was performed either at 4 °C or on ice. To record autophosphorylation level, EGFR kinase assay was carried out on the basis of DELFIA/Time-Resolved Fluorometry. The compounds were first dissolved in DMSO […]
pH 7.4. Each compound (10 μL) was incubated with recombinant enzyme (10 μL, 5 ng for EGFR, 1:80 dilution in 100 mM HEPES) for 10 min at 25 °C, subsequent to the addition of 5X buffer (10 μL, containing 2 mM MnCl2, 100 μM Na3VO4, 20 mM HEPES and 1 mM DTT) and ATP-MgCl2 (20 μL, containing 0.1 mM ATP and 50 mM MgCl2) and incubation for 1h. The negative and positive controls were included in each plate by the incubation of enzyme either with or without ATP-MgCl2. The liquid was removed after incubation and the plates were washed thrice using wash buffer.
Europium-tagged antiphosphotyrosine antibody (75 μL, 400 ng) was added to each well followed by incubation of 1h and then washing of the plates using buffer. The enhancement solution was added to each well and the signal was recorded at excitation […]
The autophosphorylation percentage inhibition by compounds was calculated using the following equation: […]

BRAF^V600E = target: T2, BRAF^V600E (Mus musculus, UniProt P28028, V585E); experiment: BRAF^V600E inhibitory assay; format: biochemical; conditions: read-out: BRAF^V600E Inhibition IC50 ± SEM
T2 construct: Mouse full-length GST-tagged BRAFV600E (7.5 ng,; GST; purchased Invitrogen PV3849
T2 sequence (P28028 whole entry V585E): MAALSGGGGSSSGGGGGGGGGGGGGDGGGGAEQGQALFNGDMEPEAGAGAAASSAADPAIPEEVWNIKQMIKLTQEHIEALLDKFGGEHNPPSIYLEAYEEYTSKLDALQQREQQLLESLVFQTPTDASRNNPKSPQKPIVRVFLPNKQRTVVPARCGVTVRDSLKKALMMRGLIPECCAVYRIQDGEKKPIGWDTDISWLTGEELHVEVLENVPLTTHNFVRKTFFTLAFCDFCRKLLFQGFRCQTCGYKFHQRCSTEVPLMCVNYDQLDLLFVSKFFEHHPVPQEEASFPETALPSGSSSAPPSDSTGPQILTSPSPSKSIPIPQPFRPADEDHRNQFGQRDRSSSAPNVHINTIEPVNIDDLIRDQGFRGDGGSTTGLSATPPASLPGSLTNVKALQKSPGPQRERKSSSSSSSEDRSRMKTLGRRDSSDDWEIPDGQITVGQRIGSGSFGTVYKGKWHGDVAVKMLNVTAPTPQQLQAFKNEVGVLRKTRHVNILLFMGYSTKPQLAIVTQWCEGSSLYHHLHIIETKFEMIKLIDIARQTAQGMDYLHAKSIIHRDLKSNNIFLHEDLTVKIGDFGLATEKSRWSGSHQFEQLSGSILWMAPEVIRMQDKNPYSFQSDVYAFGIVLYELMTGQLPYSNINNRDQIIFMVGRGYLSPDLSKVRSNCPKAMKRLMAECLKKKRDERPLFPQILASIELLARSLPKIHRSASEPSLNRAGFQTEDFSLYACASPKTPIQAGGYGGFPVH
Protocol: See Supplementary Information. […]
4.2.3. BRAFV600E inhibitory assay
V600E mutant BRAF kinase assay was performed to investigate the activity of tested compounds against BRAF. Mouse full-length GST-tagged BRAFV600E (7.5 ng, Invitrogen, PV3849) was pre-incubated with drug (1 µL) and assay dilution buffer (4 µL) for 60 min at 25 °C. In assay dilution buffer, a solution (5 µL) containing MgCl2 (30 mM), ATP (200 µM), recombinant human full length (200 ng) […] N-terminal His-tagged MEK1 (Invitrogen) was added to start the assay, subsequent to incubation for 25 min at 25 °C. The assay was stopped using 5X protein denaturing buffer (LDS) solution (5 µL). To further denature the protein, heat (70° C) was applied for 5 min. 4- […]
200 V). 10 µL of each reaction was loaded into the precast plates and electrophoresis was allowed to proceed. After completion of electrophoresis, the front part of the precast gel plate (holding hot ATP) was cut and afterwards cast-off. The dried gel was developed using a phosphor screen. A reaction without active enzyme was used as negative control while that containing no inhibitor served as positive control. […]
4.3. Statistical analysis
Computerized Prism 5 program was used to statistically analyzed data using one-way ANOVA test followed by Tukey’s as post ANOVA for multiple comparison at P ≤.05.
Data were presented as mean ± SEM.

SMILES: CCn1c(C)cs/c1=N\Nc1ccc([N+](=O)[O-])cc1[N+](=O)[O-] [Compound 3b, (Z)-2-(2-(2,4-Dinitrophenyl)Hydrazineylidene)-3-Ethyl-4-Methyl-2,3-Dihydrothiazole]
- IC50 [1]: 78 ± 7 nM
- IC50 [2]: 82 ± 8 nM
- IC50 [3]: 80 ± 8 nM
- IC50 [4]: 80 ± 8 nM
- IC50 ([5]; Homo sapiens): 80 nM
- fold less potent than compound 3f (GI50) [5]: 2.2 fold
- viability at 96 h, 50 µM (in vitro): 91%

SMILES: CCn1c(C)cs/c1=N\NS(=O)(=O)c1ccc(C)cc1 [Compound 3i, (Z)-N′-(3-Ethyl-4-Methylthiazol-2(3H)-Ylidene)-4-Methyl Benzenesulfonohydrazide]
- IC50 [1]: 84 ± 8 nM
- IC50 [2]: 89 ± 8 nM
- IC50 [3]: 86 ± 8 nM
- IC50 [4]: 86 ± 8 nM
- IC50 ([5]; Homo sapiens): 86 nM
- melting point: 236 to 238 °C
- viability at 96 h, 50 µM [6]: 95%

SMILES: COc1cccc(-n2c(-c3ccccc3)cs/c2=N\c2c[nH]c(=O)[nH]c2=O)c1 [Compound V]
- GI50 [7]: 900 nM
- IC50 (EGFR [8]): 74 ± 7 nM

SMILES: C#Cc1cccc(Nc2ncnc3cc(OCCOC)c(OCCOC)cc23)c1 [Erlotinib, reference compound]
- IC50 [1]: 30 ± 3 nM
- IC50 [2]: 40 ± 3 nM
- IC50 [3]: 30 ± 3 nM
- IC50 [4]: 30 ± 3 nM

SMILES: C=CCn1c(C)cs/c1=N\Nc1ccc([N+](=O)[O-])cc1[N+](=O)[O-] [Compound 3c, (Z)-3-Allyl-2-(2-(2,4-Dinitrophenyl)Hydrazineylidene)-4-Methyl-2,3-Dihydrothiazole]
- IC50 [1]: 50 ± 5 nM
- IC50 [2]: 56 ± 5 nM
- IC50 [3]: 54 ± 5 nM
- IC50 [4]: 54 ± 5 nM
- IC50 ([5]; Homo sapiens): > 50 nM
- IC50 [5]: 54 nM
- IC50 (EGFR [9]): 98 ± 9 nM
- IC50 (BRAF^V600E): 126 ± 11 nM
- melting point: 197 to 198 °C
- viability at 96 h, 50 µM [6]: 90%

SMILES: Cc1ccc(-n2c(C)cs/c2=N/Nc2ccc([N+](=O)[O-])cc2[N+](=O)[O-])cc1 [Compound 3f, (Z)-2-(2-(2,4-Dinitrophenyl)Hydrazineylidene)-4-Methyl-3-(p-Tolyl)-2,3-Dihydrothi-Azole]
- IC50 [1]: 35 ± 3 nM
- IC50 [2]: 40 ± 3 nM
- IC50 [3]: 37 ± 3 nM
- IC50 [4]: 37 ± 3 nM
- IC50 ([5]; Homo sapiens): 37 nM
- fold less potent than erlotinib (EGFR IC50) (EGFR [9]): 1.1 fold
- IC50 (EGFR [9]): 89 ± 7 nM
- IC50 (BRAF^V600E): 93 ± 8 nM
- viability at 96 h, 50 µM (in vitro): 89%

SMILES: Cc1cs/c(=N/Nc2ccc([N+](=O)[O-])cc2[N+](=O)[O-])n1C1CCCCC1 [Compound 3d, (Z)-3-Cyclohexyl-2-(2-(2,4-Dinitrophenyl)Hydrazineylidene)-4-Methyl-2,3-Dihydrothi-Azole]
- IC50 [1]: 43 ± 4 nM
- IC50 [2]: 47 ± 4 nM
- IC50 [3]: 46 ± 4 nM
- IC50 [4]: 46 ± 4 nM
- IC50 ([5]; Homo sapiens): 46 nM
- fold less potent than compound 3f (GI50) [5]: 1.3 fold
- fold less potent than erlotinib (EGFR IC50) (EGFR [9]): 1.15 fold
- IC50 (EGFR [9]): 91 ± 7 nM
- IC50 (BRAF^V600E): 112 ± 10 nM
- viability at 96 h, 50 µM [6]: 92%

SMILES: C=CCn1c(C)cs/c1=N\NS(=O)(=O)c1ccc(C)cc1 [Compound 3h, (Z)-N′-(3-Allyl-4-Methylthiazol-2(3H)-Ylidene)-4-Methyl Benzenesulfonohydrazide]
- IC50 [1]: 63 ± 6 nM
- IC50 [2]: 68 ± 6 nM
- IC50 [3]: 65 ± 6 nM
- IC50 [4]: 65 ± 6 nM
- IC50 ([5]; Homo sapiens): 65 nM
- melting point: 236 to 238 °C
- viability at 96 h, 50 µM [6]: 92%

SMILES: Cc1ccc(S(=O)(=O)N/N=c2\scc(C)n2-c2ccccc2)cc1 [Compound 3g, (Z)-4-Methyl-N′-(4-Methyl-3-Phenylthiazol-2(3H)-Ylidene) Benzenesulfonohydrazide]
- IC50 [1]: 58 ± 5 nM
- IC50 [2]: 63 ± 6 nM
- IC50 [3]: 60 ± 6 nM
- IC50 [4]: 58 ± 5 nM
- IC50 ([5]; Homo sapiens): 60 nM
- melting point: 193 to 194 °C
- viability at 96 h, 50 µM [6]: 90%

SMILES: Cc1cs/c(=N\Nc2ccc([N+](=O)[O-])cc2[N+](=O)[O-])n1Cc1ccccc1 [Compound 3a, (Z)-3-Benzyl-2-(2-(2,4-Dinitrophenyl)Hydrazineylidene)-4-Methyl-2,3-Dihydrothiazole]
- IC50 [1]: 45 ± 4 nM
- IC50 [2]: 49 ± 4 nM
- IC50 [3]: 48 ± 4 nM
- IC50 [4]: 48 ± 4 nM
- IC50 ([5]; Homo sapiens): 48 nM
- fold less potent than erlotinib (EGFR IC50) (EGFR [9]): 1.15 fold
- IC50 (EGFR [9]): 93 ± 8 nM
- IC50 (BRAF^V600E): 117 ± 10 nM
- melting point: 215 to 217 °C
- viability at 96 h, 50 µM [6]: 89%

SMILES: Cc1cs/c(=N\Nc2ccc([N+](=O)[O-])cc2[N+](=O)[O-])n1-c1ccccc1 [Compound 3e, (Z)-2-(2-(2,4-Dinitrophenyl)Hydrazineylidene)-4-Methyl-3-Phenyl-2,3-Dihydrothiazole]
- IC50 [1]: 71 ± 7 nM
- IC50 [2]: 74 ± 7 nM
- IC50 [3]: 72 ± 7 nM
- IC50 [4]: 72 ± 7 nM
- IC50 ([5]; Homo sapiens): 72 nM
- fold less potent than compound 3f (GI50) [5]: 2 fold
- viability at 96 h, 50 µM (in vitro): 87%
